The values that follow are results of earlier work, collected in US20240374540A1, “FORMULATIONS FOR THE TREATMENT OF OCULAR SURFACE DISEASES AND RELATED METHODS” (priority 2016, published 2024).

The subject of the series is AQP5. As to conditions: human airway epithelial cells (A459 cells).

`Nc1c(Br)cc(Br)cc1CN[C@H]1CC[C@H](O)CC1` [ambroxol, Ambroxol]: the “expression of AQP5” value is on record as “stimulate the expression of AQP5”.
